Reference: patent US20110097745A1, “Method For Detecting Microbes” (priority 2007, published 2011)
Converted amounts (≈) assume the structure as drawn.

Assays:
[1] = tested on: E. coli (W4110); assay: overnight disk diffusion test; type: cell-based; details: 16 hrs 37 C
Experimental: (§1) Infecting bacteria (10^6 cells/ml from overnight grown cultures) were spread on LA plates on which 15 mm disks, saturated with various antibiotics, had been placed. After incubating the plates at 37 degrees Celsius for 16 hrs the zone of inhibition was determined for each strain. (Abbreviations used in FIG. 1a and Table 1a: CAP—Chloramphenicol; KAN—Kanamycin; AMP—Ampicillin; CEP—Cephamezin GEN—Gentamycin).

[2] = tested on: S. typhimirium (772); assay: overnight disk diffusion test; type: cell-based; details: 16 hrs 37 C
Experimental: as §1

[3] = tested on: infecting bacteria of urine samples; assay: antibiotics disc inhibition zone, urine samples (standard analysis); type: cell-based
Experimental: A standard analysis (urine culture colony count) was performed to evaluate bacterial load (Table 5a) and antibiotic susceptibility (Table 5b).

[4] = tested on: S. typhi; assay: microbe, parasite or virus in culture; type: cell-based
[5] = tested on: infecting bacteria of urine samples; assay: BLT antibiotic susceptibility of urine samples; type: cell-based; parameters: BLT (luminescence): unit not given here; details: for BLT (luminescence): 3 hrs 37 C, concentrations given in Table 5; for antibiotic susceptibility of urine samples: key: R = resistant; S = susceptible
Experimental: Six fresh urine samples were obtained from a local clinic and examined for bacteriuria (>10^5 cells/mL urine) and the antibiotic susceptibility of the infecting bacteriuria. A tube containing a an antibiotic mixture that would eliminate all infecting bacteria but not effect the lux cells (Ampicillin, Kanamycin, Tetracyclin, and Chloramphenicol) served as a control.
Each urine sample was diluted in Medium 1 to yield a final concentration of 3%. 0.1 mL of the diluted samples were then incubated for 3 hrs. at 37 degrees Celsius in a microtitre plate, with or without an antimicrobial substance at the concentrations given in Table 5).
An equal volume of Medium 2 containing 10 ng/ml autoinducer and supplemented with 10^6 of the lux cells was then added to each well. The microtiter plate was then incubated at 28 degrees/Celsius and the luminescence was measured using a plate reader luminometer.
Luminescence was measured in the absence of antibiotics, in the presence of a mixture of antibiotics and in the presence of a single antibiotic from the mixture.
When the ratio of the luminescence measured in the presence of the single antibiotic to that measured in the presence of the antibiotic mix exceeds a second predetermined constant (e.g. 3) then the infecting bacteria are […] to the antibiotic.

[6] = tested on: S. aureus; assay: BLT (bioluminescence test) MIC determination
[7] = tested on: P. aeroginosa; assay: overnight disk diffusion test; type: cell-based; details: disk 10 ppm, 16 hrs 37 C
Experimental: as §1

| Compound | Antibiotics disc inhibition zone ([3]; urine sample 1, 30 ppm) [mm] | Antibiotics disc inhibition zone ([3]; urine sample 2, 30 ppm) [mm] | Antibiotics disc inhibition zone ([3]; urine sample 3, 30 ppm) [mm] | Antibiotics disc inhibition zone ([3]; urine sample 4, 30 ppm) [mm] | Antibiotics disc inhibition zone ([3]; urine sample 6, 30 ppm) [mm] | antibiotic susceptibility of urine samples ([5]; urine sample 1) | BLT (luminescence) ([5]; urine sample 1, 3% urine) | antibiotic susceptibility of urine samples ([5]; urine sample 2) | BLT (luminescence) ([5]; urine sample 2, 3% urine) | antibiotic susceptibility of urine samples ([5]; urine sample 3) | BLT (luminescence) ([5]; urine sample 3, 3% urine) | antibiotic susceptibility of urine samples ([5]; urine sample 4) | BLT (luminescence) ([5]; urine sample 4, 3% urine) | antibiotic susceptibility of urine samples ([5]; urine sample 5) | BLT (luminescence) ([5]; urine sample 5, 3% urine) | antibiotic susceptibility of urine samples ([5]; urine sample 6) | BLT (luminescence) ([5]; urine sample 6, 3% urine) | also measured |
| --- | --- | --- | --- | --- | --- | --- | --- | --- | --- | --- | --- | --- | --- | --- | --- | --- | --- | --- |
| NC[C@H]1O[C@H](O[C@H]2[C@H](O)[C@@H](O[C@H]3O[C@H](CO)[C@@H](O)[C@H](N)[C@H]3O)[C@H](N)C[C@@H]2N)[C@H](O)[C@@H](O)[C@@H]1O [Kanamicin, Kanamycin] | 5 | 5 | 5 | 2 | 1 | S | 64 | S | 42 | S | 49 | S | 30 | S | 16 | S | 38 | zone of inhibition ([1]; disk 30 ppm): 25 mm; zone of inhibition ([2]; disk 30 ppm): 20 mm; LU, fold increase over control (no antibiotics added) ([4]; 0.117 ppm): 1.4; LU, fold increase over control (no antibiotics added) ([4]; 0.234 ppm): 1.62; LU, fold increase over control (no antibiotics added) ([4]; 0.468 ppm): 1.49; LU, fold increase over control (no antibiotics added) ([4]; 0.937 ppm): 1.82; LU, fold increase over control (no antibiotics added) ([4]; 1.875 ppm): 2.3; LU, fold increase over control (no antibiotics added) ([4]; 3.75 ppm): 2.45; LU, fold increase over control (no antibiotics added) ([4]; 7.5 ppm): 3.13; LU, fold increase over control (no antibiotics added) ([4]; 15 ppm): 5.79; LU, fold increase over control (no antibiotics added) ([4]; 30 ppm): 6.27; MIC ([4]; Salmonella enterica, TYPHI, lowest concentration giving two-fold increase of tester luminescence above control): ~1 mg/L (≈ 2.06 µM) |
| CC1(C)S[C@@H]2[C@H](NC(=O)Cc3ccccc3)C(=O)N2[C@H]1C(=O)O [Penicillin G] |  |  |  |  |  | R | 0.5 | R | 0.93 | S | 4 | S | 30 | R | 0.417 | S | 11 | Antibiotics disc inhibition zone ([3]; urine sample 1, 40 ppm): 0 mm; Antibiotics disc inhibition zone ([3]; urine sample 2, 40 ppm): 0 mm; Antibiotics disc inhibition zone ([3]; urine sample 3, 40 ppm): 3 mm; Antibiotics disc inhibition zone ([3]; urine sample 4, 40 ppm): 7 mm; Antibiotics disc inhibition zone ([3]; urine sample 6, 40 ppm): 2 mm |
| CO/N=C(\C(=O)N[C@@H]1C(=O)N2C(C(=O)O)=C(COC(N)=O)CS[C@H]12)c1ccco1 [Cefuroxime] | 6 | 7 | 5 | 5 | 4 | S | 55 | S | 1.36 | S | 2.4 | S | 31 | S | 8.6 | S | 0.76 |  |
| Gentamycin [Gentamicin] |  |  |  |  |  | S | 53 | S | 44 | S | 30 | S | 36 | S | 11.5 | S | 35 | LU, fold increase over control (no antibiotics added) ([6]; 0.39 ppm): 1.2; LU, fold increase over control (no antibiotics added) ([6]; 0.781 ppm): 1.2; LU, fold increase over control (no antibiotics added) ([6]; 1.562 ppm): 1.3; LU, fold increase over control (no antibiotics added) ([6]; 3.125 ppm): 1.5; LU, fold increase over control (no antibiotics added) ([6]; 6.25 ppm): 3.1; LU, fold increase over control (no antibiotics added) ([6]; 12.5 ppm): 3.6; LU, fold increase over control (no antibiotics added) ([6]; 25 ppm): 3.4; LU, fold increase over control (no antibiotics added) ([6]; 50 ppm): 6.5; MIC ([6]; lowest concentration giving two-fold increase of tester luminescence above control): 3.12-6.2 ppm; zone of inhibition ([1]; disk 10 ppm): 15 mm; zone of inhibition [7]: 20 mm; zone of inhibition ([2]; disk 10 ppm): 20 mm; Antibiotics disc inhibition zone ([3]; urine sample 1, 10 ppm): 4 mm; Antibiotics disc inhibition zone ([3]; urine sample 2, 10 ppm): 5 mm; Antibiotics disc inhibition zone ([3]; urine sample 3, 10 ppm): 6 mm; Antibiotics disc inhibition zone ([3]; urine sample 4, 10 ppm): 2 mm; Antibiotics disc inhibition zone ([3]; urine sample 6, 10 ppm): 5 mm |
| CC1(C)S[C@@H]2[C@H](NC(=O)[C@H](N)c3ccccc3)C(=O)N2[C@H]1C(=O)O [Ampicillin] |  |  |  |  |  | R | 1 | R | 0.144 | S | 5.11 | S | 30 | R | 0.42 | S | 18 | zone of inhibition ([1]; disk 40 ppm): 40 mm; zone of inhibition ([2]; disk 40 ppm): 30 mm; Antibiotics disc inhibition zone ([3]; urine sample 1, 40 ppm): 0 mm; Antibiotics disc inhibition zone ([3]; urine sample 2, 40 ppm): 0 mm; Antibiotics disc inhibition zone ([3]; urine sample 3, 40 ppm): 5 mm; Antibiotics disc inhibition zone ([3]; urine sample 4, 40 ppm): 7 mm; Antibiotics disc inhibition zone ([3]; urine sample 6, 40 ppm): 5 mm |
| Cc1onc(-c2ccccc2Cl)c1C(=O)N[C@@H]1C(=O)N2[C@@H]1SC(C)(C)[C@@H]2C(=O)[O-].[Na+] [Orbenil] |  |  |  |  |  | R | 0.8 | R | 0.087 | R | 0.76 | S | 30 | R | 0.63 | R | 0.18 | Antibiotics disc inhibition zone ([3]; urine sample 1, 10 ppm): 0 mm; Antibiotics disc inhibition zone ([3]; urine sample 2, 10 ppm): 0 mm; Antibiotics disc inhibition zone ([3]; urine sample 3, 10 ppm): 0 mm; Antibiotics disc inhibition zone ([3]; urine sample 4, 10 ppm): 6 mm; Antibiotics disc inhibition zone ([3]; urine sample 6, 10 ppm): 0 mm |
| Cc1nnc(SCC2=C(C(=O)O)N3C(=O)[C@@H](NC(=O)Cn4cnnn4)[C@H]3SC2)s1 [Cephamezin] | 7 | 5 | 7 | 5 | 6 | S | 61 | S | 2.3 | S | 21.8 | S | 30 | S | 16 | S | 36.8 | zone of inhibition ([1]; disk 30 ppm): 30 mm; zone of inhibition ([2]; disk 30 ppm): 40 mm |
